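Growth conditions: 96-well plates. Treatment: test compound, 48 hours, 5 concentrations. Analysis: linear interpolation between bracketing concentrations; unreached endpoints set to highest concentration. The concentration for 50% growth inhibition is given as GI50.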 Calls of active or inactive are those of the source. Rule as the data show it: active = GI50 up to about 1.1 µM and inactive = higher.
Columns and labels:
Assay in all cases: DTP human tumour cell line panel, 48 h
HT-29 = test system: HT-29
IGROV-1 = test system: IGROV-1
RPMI-8226 = test system: RPMI-8226
SN12C = test system: SN12C
MOLT-4 = test system: MOLT-4
A498 = test system: A498
Malme-3M = test system: Malme-3M
LOX IMVI = test system: LOX IMVI
SF-295 = test system: SF-295
CAKI-1 = test system: CAKI-1
DU-145 = test system: DU-145
NCI-H226 = test system: NCI-H226
NCI-H522 = test system: NCI-H522
OVCAR-4 = test system: OVCAR-4
OVCAR-8 = test system: OVCAR-8
EKVX = test system: EKVX
NCI-H23 = test system: NCI-H23
SK-MEL-28 = test system: SK-MEL-28
K562 = test system: K562
MDA-N = test system: MDA-N

Structure (SMILES)	GI50 (HT-29)	GI50 (IGROV-1)	GI50 (RPMI-8226)	GI50 (SN12C)	GI50 (MOLT-4)	GI50 (A498)	GI50 (Malme-3M)	GI50 (LOX IMVI)	GI50 (SF-295)	GI50 (CAKI-1)	GI50 (DU-145)	GI50 (NCI-H226)	GI50 (NCI-H522)	GI50 (OVCAR-4)	GI50 (OVCAR-8)	GI50 (EKVX)	GI50 (NCI-H23)	GI50 (SK-MEL-28)	GI50 (K562)	GI50 (MDA-N)
CCOP(=O)(OCC)C(Nc1ccc(F)cc1)c1ccccc1 (stereo not given)	> 100 µM (inactive)	> 100 µM (inactive)	> 100 µM (inactive)	43.8 µM (inactive)	92.9 µM (inactive)	> 100 µM (inactive)	> 100 µM (inactive)	> 100 µM (inactive)	> 100 µM (inactive)	> 100 µM (inactive)	> 100 µM (inactive)	> 100 µM (inactive)	56.5 µM (inactive)	> 100 µM (inactive)	> 100 µM (inactive)	> 100 µM (inactive)	> 100 µM (inactive)	> 100 µM (inactive)	57.9 µM (inactive)	79.3 µM (inactive)
O=C1NC(=O)C2(CCCCCC2)N1	> 100 µM (inactive)	> 100 µM (inactive)	> 100 µM (inactive)	> 100 µM (inactive)	> 100 µM (inactive)	> 100 µM (inactive)	> 100 µM (inactive)	> 100 µM (inactive)	> 100 µM (inactive)	> 100 µM (inactive)	> 100 µM (inactive)	> 100 µM (inactive)	> 100 µM (inactive)	> 100 µM (inactive)	> 100 µM (inactive)	> 100 µM (inactive)	> 100 µM (inactive)	> 100 µM (inactive)	> 100 µM (inactive)	> 100 µM (inactive)
COC(=O)c1ccc(NCc2c(O)ccc(O)c2Br)cc1Cl	20.7 µM (inactive)	14.5 µM (inactive)	3.56 µM (inactive)	12.6 µM (inactive)	1.36 µM (inactive)	> 100 µM (inactive)	18.3 µM (inactive)	13 µM (inactive)	18.9 µM (inactive)	15.8 µM (inactive)	16.2 µM (inactive)	31.5 µM (inactive)	0.329 µM (active)	18.2 µM (inactive)	14.7 µM (inactive)	14.6 µM (inactive)	16.6 µM (inactive)	16.8 µM (inactive)	1.78 µM (inactive)	12 µM (inactive)
COc1cc(C2c3cc4c(cc3OC(Nc3ccc(C(=O)O)cc3)C2C)OCO4)cc(OC)c1OC (stereo not given)	0.329 µM (active)	0.618 µM (active)	0.337 µM (active)	0.991 µM (active)	0.434 µM (active)	0.714 µM (active)	0.0655 µM (active)	0.532 µM (active)	0.214 µM (active)	0.204 µM (active)	0.378 µM (active)	2.31 µM (inactive)	0.376 µM (active)	0.458 µM (active)	0.422 µM (active)	0.745 µM (active)	0.454 µM (active)	11.1 µM (inactive)	0.3 µM (active)	0.0557 µM (active)
CN(C)/N=C/c1cn(C)c(=O)n(C)c1=O	> 100 µM (inactive)	> 100 µM (inactive)	> 100 µM (inactive)	> 100 µM (inactive)	> 100 µM (inactive)	> 100 µM (inactive)	> 100 µM (inactive)	> 100 µM (inactive)	> 100 µM (inactive)	> 100 µM (inactive)	> 100 µM (inactive)	> 100 µM (inactive)	> 100 µM (inactive)	> 100 µM (inactive)	> 100 µM (inactive)	> 100 µM (inactive)	> 100 µM (inactive)	> 100 µM (inactive)	> 100 µM (inactive)	> 100 µM (inactive)
CCOC(=O)CN1C(=O)c2cc([N+](=O)[O-])cc3cc([N+](=O)[O-])cc(c23)C1=O	34.7 µM (inactive)	> 66.1 µM (inactive)	19.6 µM (inactive)	14.7 µM (inactive)	3.56 µM (inactive)	> 100 µM (inactive)	43.5 µM (inactive)	4.1 µM (inactive)	72.3 µM (inactive)	30.5 µM (inactive)	> 25.3 µM (inactive)	45.4 µM (inactive)	4.21 µM (inactive)	> 100 µM (inactive)	27.9 µM (inactive)	> 100 µM (inactive)	99.3 µM (inactive)	49.3 µM (inactive)	5.13 µM (inactive)	11 µM (inactive)
CC(C)CC(=O)OC[n+]1cccc(-c2c(COC(=O)NC(C)C)c(COC(=O)NC(C)C)c3n2CCC3)c1	52.6 µM (inactive)	> 100 µM (inactive)	15.2 µM (inactive)	36.9 µM (inactive)	38 µM (inactive)	23.3 µM (inactive)	83.6 µM (inactive)	26.8 µM (inactive)	39 µM (inactive)	17.2 µM (inactive)	24.7 µM (inactive)	> 100 µM (inactive)	23.7 µM (inactive)	38.5 µM (inactive)	48.8 µM (inactive)	> 100 µM (inactive)	31.1 µM (inactive)	> 100 µM (inactive)	51.9 µM (inactive)	> 100 µM (inactive)
CCCCCCCCCCCCCCCC(=O)OC1C(O)C(O)C(O)C(O)C12CO2 (stereo not given)	45.4 µM (inactive)	25.1 µM (inactive)	26.4 µM (inactive)	17.5 µM (inactive)	12.2 µM (inactive)	> 100 µM (inactive)	> 100 µM (inactive)	20.3 µM (inactive)	70.1 µM (inactive)	13.6 µM (inactive)	88.5 µM (inactive)	42.8 µM (inactive)	33 µM (inactive)	55.1 µM (inactive)	22.8 µM (inactive)	22.7 µM (inactive)	49.2 µM (inactive)	> 100 µM (inactive)	24.7 µM (inactive)	> 100 µM (inactive)
CCOC(=O)C(CCc1ncnc2c1ncn2Cc1ccccc1)(CCc1ncnc2c1ncn2Cc1ccccc1)C(=O)OCC	42.9 µM (inactive)	89.9 µM (inactive)	23.6 µM (inactive)	58.6 µM (inactive)	13.4 µM (inactive)	47.4 µM (inactive)	61.7 µM (inactive)	44.4 µM (inactive)	70.3 µM (inactive)	51.8 µM (inactive)	89.3 µM (inactive)	27.7 µM (inactive)	33.9 µM (inactive)	59.4 µM (inactive)	64.1 µM (inactive)	63.7 µM (inactive)	46.1 µM (inactive)	98.9 µM (inactive)	42.5 µM (inactive)	33 µM (inactive)
CCOc1cc(NC(C)=O)ccc1C(=O)NN1C(=O)/C(=C/c2ccco2)N=C1c1ccccc1	> 100 µM (inactive)	> 100 µM (inactive)	15.1 µM (inactive)	> 100 µM (inactive)	22.3 µM (inactive)	> 100 µM (inactive)	> 100 µM (inactive)	> 100 µM (inactive)	> 100 µM (inactive)	> 100 µM (inactive)	> 100 µM (inactive)	> 100 µM (inactive)	24.9 µM (inactive)	> 100 µM (inactive)	41.2 µM (inactive)	74.3 µM (inactive)	> 100 µM (inactive)	> 100 µM (inactive)	26.8 µM (inactive)	> 100 µM (inactive)
COc1ccc(/C(CC2OC(=O)c3ccccc32)=N\NC(N)=O)cc1 (stereo not given)	> 100 µM (inactive)	> 100 µM (inactive)	> 100 µM (inactive)	> 100 µM (inactive)	> 100 µM (inactive)	> 100 µM (inactive)	> 100 µM (inactive)	> 100 µM (inactive)	> 100 µM (inactive)	> 100 µM (inactive)	> 100 µM (inactive)	> 100 µM (inactive)	> 100 µM (inactive)	> 100 µM (inactive)	> 100 µM (inactive)	> 100 µM (inactive)	> 100 µM (inactive)	> 100 µM (inactive)	> 100 µM (inactive)	> 100 µM (inactive)
CC1(CCc2ccccc2)CC1(Br)Br (stereo not given)	30.4 µM (inactive)	92 µM (inactive)	18.6 µM (inactive)	18 µM (inactive)	23.4 µM (inactive)	39.6 µM (inactive)	22.5 µM (inactive)	20.5 µM (inactive)	25.4 µM (inactive)	56.5 µM (inactive)	57.9 µM (inactive)	24 µM (inactive)	23 µM (inactive)	30.3 µM (inactive)	23.6 µM (inactive)	19.1 µM (inactive)	43.9 µM (inactive)	> 100 µM (inactive)	19.5 µM (inactive)	32.7 µM (inactive)
CN(N)/N=N/c1[nH]cnc1[N+](=O)[O-]	> 100 µM (inactive)	> 100 µM (inactive)	22 µM (inactive)	31.8 µM (inactive)	14.6 µM (inactive)	> 100 µM (inactive)	> 100 µM (inactive)	39.2 µM (inactive)	> 100 µM (inactive)	20.8 µM (inactive)	> 100 µM (inactive)	> 100 µM (inactive)	> 100 µM (inactive)	56.1 µM (inactive)	28.4 µM (inactive)	94.8 µM (inactive)	> 100 µM (inactive)	> 100 µM (inactive)	19.6 µM (inactive)	51.2 µM (inactive)
CC(C)NC(=O)OCc1c(COC(=O)NC(C)C)n(C)c2c1ccc1ccccc12	3.34 µM (inactive)	1.43 µM (inactive)	1.19 µM (inactive)	2.02 µM (inactive)	1.15 µM (inactive)	1.57 µM (inactive)	0.877 µM (active)	1.16 µM (inactive)	4.56 µM (inactive)	0.542 µM (active)	3.1 µM (inactive)	1.82 µM (inactive)	0.0417 µM (active)	2.75 µM (inactive)	1.8 µM (inactive)	2.43 µM (inactive)	1.54 µM (inactive)	1.99 µM (inactive)	0.171 µM (active)	1.74 µM (inactive)

— ChEMBL document CHEMBL1201862, “PubChem BioAssay data set” (2004)
